#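 All cell lines were grown in 96-well plates and treated with compound for 48 hours. GI50 is the concentration that inhibits growth by half. TGI: concentration producing complete growth inhibition.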
# Tests used:
# Assay in all cases: NCI-60 cell line screen, 48 h
# UACC-257 melanoma = tested on: UACC-257 melanoma
# MOLT-4 leukemia = tested on: MOLT-4 leukemia
# K-562 leukemia = tested on: K-562 leukemia
# PC-3 prostate = tested on: PC-3 prostate
# 786-0 renal = tested on: 786-0 renal
# SK-MEL-2 melanoma = tested on: SK-MEL-2 melanoma
# MDA-MB-435 = tested on: MDA-MB-435
# UO-31 renal = tested on: UO-31 renal
# M14 melanoma = tested on: M14 melanoma
# SN12C renal = tested on: SN12C renal
# MCF7 breast = tested on: MCF7 breast
# COLO 205 colon = tested on: COLO 205 colon
# U251 CNS = tested on: U251 CNS
# SNB-75 CNS = tested on: SNB-75 CNS
# EKVX NSCLC = tested on: EKVX NSCLC
# RPMI-8226 leukemia = tested on: RPMI-8226 leukemia
# CCRF-CEM leukemia = tested on: CCRF-CEM leukemia
# NCI-H226 lung = tested on: NCI-H226 lung
# BT-549 breast = tested on: BT-549 breast
# SNB-19 CNS = tested on: SNB-19 CNS
# A498 renal = tested on: A498 renal
# OVCAR-5 ovarian = tested on: OVCAR-5 ovarian
# SW-620 colon = tested on: SW-620 colon
# T-47D breast = tested on: T-47D breast
# SK-MEL-5 melanoma = tested on: SK-MEL-5 melanoma
# HT29 colon = tested on: HT29 colon
# CAKI-1 renal = tested on: CAKI-1 renal
# OVCAR-8 ovarian = tested on: OVCAR-8 ovarian
# SR leukemia = tested on: SR leukemia
# NCI-H522 lung = tested on: NCI-H522 lung
# NCI-H460 lung = tested on: NCI-H460 lung
# SF-268 CNS = tested on: SF-268 CNS
# HL-60(TB) leukemia = tested on: HL-60(TB) leukemia
# HOP-62 NSCLC = tested on: HOP-62 NSCLC
# MALME-3M melanoma = tested on: MALME-3M melanoma
# HCT-15 colon = tested on: HCT-15 colon
# A549 NSCLC = tested on: A549 NSCLC
# MDA-MB-231 breast = tested on: MDA-MB-231 breast
# OVCAR-4 ovarian = tested on: OVCAR-4 ovarian
# KM12 colon = tested on: KM12 colon
# SK-MEL-28 melanoma = tested on: SK-MEL-28 melanoma
# RXF 393 renal = tested on: RXF 393 renal
# HCT-116 colon = tested on: HCT-116 colon
# SK-OV-3 ovarian = tested on: SK-OV-3 ovarian
# HCC-2998 colon = tested on: HCC-2998 colon
# IGROV1 ovarian = tested on: IGROV1 ovarian
# SF-295 CNS = tested on: SF-295 CNS
# NCI-H23 lung = tested on: NCI-H23 lung
# TK-10 renal = tested on: TK-10 renal
# SF-539 CNS = tested on: SF-539 CNS
# LOX IMVI melanoma = tested on: LOX IMVI melanoma
# UACC-62 melanoma = tested on: UACC-62 melanoma
# OVCAR-3 ovarian = tested on: OVCAR-3 ovarian
# DU-145 prostate = tested on: DU-145 prostate
# NCI/ADR-RES ovarian = tested on: NCI/ADR-RES ovarian
# ACHN renal = tested on: ACHN renal
smiles,measurement,setting,value
Clc1ccc(-c2cnc3c(-c4ccnc(N5CCNCC5)c4)cnn3c2)cc1,GI50,UACC-257 melanoma,2080 nM
same,TGI,UACC-257 melanoma,3820 nM
same,GI50,MOLT-4 leukemia,1750 nM
same,TGI,MOLT-4 leukemia,3700 nM
same,GI50,K-562 leukemia,1840 nM
same,TGI,K-562 leukemia,3740 nM
same,GI50,PC-3 prostate,1850 nM
same,TGI,PC-3 prostate,5720 nM
same,GI50,786-0 renal,1830 nM
same,TGI,786-0 renal,3220 nM
same,GI50,SK-MEL-2 melanoma,561 nM
same,TGI,SK-MEL-2 melanoma,1690 nM
same,GI50,MDA-MB-435,1890 nM
same,TGI,MDA-MB-435,3720 nM
same,GI50,UO-31 renal,1610 nM
same,TGI,UO-31 renal,3590 nM
same,GI50,M14 melanoma,2000 nM
same,TGI,M14 melanoma,3460 nM
same,GI50,SN12C renal,1700 nM
same,TGI,SN12C renal,3340 nM
same,GI50,MCF7 breast,1850 nM
same,TGI,MCF7 breast,3660 nM
same,GI50,COLO 205 colon,2140 nM
same,TGI,COLO 205 colon,3770 nM
same,GI50,U251 CNS,1890 nM
same,TGI,U251 CNS,3510 nM
same,GI50,SNB-75 CNS,1560 nM
same,TGI,SNB-75 CNS,2910 nM
same,GI50,EKVX NSCLC,1830 nM
same,TGI,EKVX NSCLC,3500 nM
same,GI50,RPMI-8226 leukemia,1860 nM
same,TGI,RPMI-8226 leukemia,4050 nM
same,GI50,CCRF-CEM leukemia,2070 nM
same,TGI,CCRF-CEM leukemia,5130 nM
same,GI50,NCI-H226 lung,21400 nM
same,TGI,NCI-H226 lung,44700 nM
same,GI50,BT-549 breast,1600 nM
same,TGI,BT-549 breast,3020 nM
same,GI50,SNB-19 CNS,2020 nM
same,TGI,SNB-19 CNS,4030 nM
same,GI50,A498 renal,1650 nM
same,TGI,A498 renal,3060 nM
same,GI50,OVCAR-5 ovarian,1820 nM
same,TGI,OVCAR-5 ovarian,3290 nM
same,GI50,SW-620 colon,1780 nM
same,TGI,SW-620 colon,3270 nM
same,GI50,T-47D breast,1820 nM
same,TGI,T-47D breast,3800 nM
same,GI50,SK-MEL-5 melanoma,1790 nM
same,TGI,SK-MEL-5 melanoma,3220 nM
same,GI50,HT29 colon,1240 nM
same,TGI,HT29 colon,2530 nM
same,GI50,CAKI-1 renal,1900 nM
same,TGI,CAKI-1 renal,3510 nM
same,GI50,OVCAR-8 ovarian,2210 nM
same,TGI,OVCAR-8 ovarian,4310 nM
same,GI50,SR leukemia,1600 nM
same,TGI,SR leukemia,4580 nM
same,GI50,NCI-H522 lung,2370 nM
same,TGI,NCI-H522 lung,5890 nM
same,GI50,NCI-H460 lung,1890 nM
same,TGI,NCI-H460 lung,3530 nM
same,GI50,SF-268 CNS,1910 nM
same,TGI,SF-268 CNS,3690 nM
same,GI50,HL-60(TB) leukemia,1250 nM
same,TGI,HL-60(TB) leukemia,3260 nM
same,GI50,HOP-62 NSCLC,1920 nM
same,TGI,HOP-62 NSCLC,3380 nM
same,GI50,MALME-3M melanoma,1860 nM
same,TGI,MALME-3M melanoma,3310 nM
same,GI50,HCT-15 colon,2700 nM
same,TGI,HCT-15 colon,5180 nM
same,GI50,A549 NSCLC,1960 nM
same,TGI,A549 NSCLC,3690 nM
same,GI50,MDA-MB-231 breast,1740 nM
same,TGI,MDA-MB-231 breast,3700 nM
same,GI50,OVCAR-4 ovarian,1610 nM
same,TGI,OVCAR-4 ovarian,3090 nM
same,GI50,KM12 colon,1870 nM
same,TGI,KM12 colon,3430 nM
same,GI50,SK-MEL-28 melanoma,1790 nM
same,TGI,SK-MEL-28 melanoma,3200 nM
same,GI50,RXF 393 renal,2090 nM
same,TGI,RXF 393 renal,3720 nM
same,GI50,HCT-116 colon,1710 nM
same,TGI,HCT-116 colon,3090 nM
same,GI50,SK-OV-3 ovarian,2720 nM
same,TGI,SK-OV-3 ovarian,5630 nM
same,GI50,HCC-2998 colon,2020 nM
same,TGI,HCC-2998 colon,3510 nM
same,GI50,IGROV1 ovarian,3340 nM
same,TGI,IGROV1 ovarian,11600 nM
same,GI50,SF-295 CNS,1880 nM
same,TGI,SF-295 CNS,3570 nM
same,GI50,NCI-H23 lung,1990 nM
same,TGI,NCI-H23 lung,3660 nM
same,GI50,TK-10 renal,1990 nM
same,TGI,TK-10 renal,3430 nM
same,GI50,SF-539 CNS,1740 nM
same,TGI,SF-539 CNS,3290 nM
same,GI50,LOX IMVI melanoma,1910 nM
same,TGI,LOX IMVI melanoma,3480 nM
same,GI50,UACC-62 melanoma,2060 nM
same,TGI,UACC-62 melanoma,3910 nM
same,GI50,OVCAR-3 ovarian,1960 nM
same,TGI,OVCAR-3 ovarian,3420 nM
same,GI50,DU-145 prostate,1640 nM
same,TGI,DU-145 prostate,3020 nM
CCCc1cn2c(/C=N/N=C(N)N)c(-c3cc([N+](=O)[O-])c(Cl)cc3Cl)nc2s1,TGI,MOLT-4 leukemia,873 nM
same,TGI,K-562 leukemia,2490 nM
same,TGI,SN12C renal,3160 nM
same,TGI,SNB-75 CNS,3070 nM
same,TGI,CCRF-CEM leukemia,860 nM
same,TGI,A498 renal,2880 nM
same,TGI,OVCAR-5 ovarian,3120 nM
same,TGI,SW-620 colon,2970 nM
same,TGI,NCI/ADR-RES ovarian,4310 nM
same,TGI,HT29 colon,2460 nM
same,TGI,SR leukemia,2920 nM
same,TGI,ACHN renal,3160 nM
same,TGI,HCT-15 colon,3020 nM
same,TGI,OVCAR-4 ovarian,2830 nM
same,TGI,TK-10 renal,2330 nM
same,TGI,UACC-62 melanoma,3150 nM
same,TGI,DU-145 prostate,3530 nM

# — PubChem BioAssay (NCI)
